# Assay results from PMC5399295 (Nature Communications, 2017).
# Like-named read-outs stand apart in the source and are kept apart here.
# T1: β2-adaptin(700–937)-StrepTagII (human, UniProt P63010 700-937)
# T1 construct: human β2-adaptin, residues 700 to 937 (appendage domain); printed molecular weight 26.88 kDa; Cloned into pRSETA between BamHI and Acc65I; also called β2-appendage; β-appendage; source: E. coli BL21 pLysS, purified (Strep-Tactin Sepharose, sepharose column, gel filtration)
# T1 sequence (looked up): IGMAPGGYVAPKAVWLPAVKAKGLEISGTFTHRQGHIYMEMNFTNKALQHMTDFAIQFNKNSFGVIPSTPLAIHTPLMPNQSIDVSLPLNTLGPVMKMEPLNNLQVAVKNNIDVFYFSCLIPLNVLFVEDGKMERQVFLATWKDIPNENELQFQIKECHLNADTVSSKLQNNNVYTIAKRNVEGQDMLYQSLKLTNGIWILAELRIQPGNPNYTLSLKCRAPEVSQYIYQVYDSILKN
# Tests used:
# β2-adaptin [1] = molecular target: T2, β2-adaptin (Homo sapiens, UniProt P63010); assay: differential scanning fluorimetry (CPM dye) on purified β2-appendage, dose-dependent Tm shift; supported by GST-β2-adaptin([…]) pull-down and cell BRET (IC50 […] for β-arrestin1, from cell BRET); format: cell-based
# T2 construct: gene AP2B1; residues 700-937 StrepTagII used only for DSF
# T2 sequence (P63010 2-937): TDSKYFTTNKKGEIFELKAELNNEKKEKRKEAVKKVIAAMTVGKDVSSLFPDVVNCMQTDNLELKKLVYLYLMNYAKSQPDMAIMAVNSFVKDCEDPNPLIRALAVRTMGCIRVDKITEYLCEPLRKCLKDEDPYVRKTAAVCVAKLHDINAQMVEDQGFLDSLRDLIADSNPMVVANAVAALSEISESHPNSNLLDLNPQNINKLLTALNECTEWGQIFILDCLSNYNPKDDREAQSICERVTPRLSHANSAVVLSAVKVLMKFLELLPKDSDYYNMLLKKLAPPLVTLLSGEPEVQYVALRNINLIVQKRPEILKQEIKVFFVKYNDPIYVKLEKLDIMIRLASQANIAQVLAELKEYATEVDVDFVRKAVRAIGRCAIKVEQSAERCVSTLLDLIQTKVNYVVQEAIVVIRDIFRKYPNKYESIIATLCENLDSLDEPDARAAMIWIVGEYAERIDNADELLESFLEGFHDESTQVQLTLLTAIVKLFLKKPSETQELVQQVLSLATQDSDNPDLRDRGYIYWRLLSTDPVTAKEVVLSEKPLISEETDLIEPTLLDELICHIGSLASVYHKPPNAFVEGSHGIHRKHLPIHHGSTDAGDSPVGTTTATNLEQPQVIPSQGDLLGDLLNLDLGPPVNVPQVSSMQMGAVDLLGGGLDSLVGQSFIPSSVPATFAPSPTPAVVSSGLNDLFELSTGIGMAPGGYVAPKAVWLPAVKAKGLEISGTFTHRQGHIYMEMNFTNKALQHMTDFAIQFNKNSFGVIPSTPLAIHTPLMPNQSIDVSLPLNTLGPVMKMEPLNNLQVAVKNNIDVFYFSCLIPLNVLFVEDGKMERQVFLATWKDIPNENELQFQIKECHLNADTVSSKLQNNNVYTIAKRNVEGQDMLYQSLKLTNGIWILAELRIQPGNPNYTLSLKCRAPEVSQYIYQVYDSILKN
# T2 sequence (P49407 whole entry partner, the tested form may be a part): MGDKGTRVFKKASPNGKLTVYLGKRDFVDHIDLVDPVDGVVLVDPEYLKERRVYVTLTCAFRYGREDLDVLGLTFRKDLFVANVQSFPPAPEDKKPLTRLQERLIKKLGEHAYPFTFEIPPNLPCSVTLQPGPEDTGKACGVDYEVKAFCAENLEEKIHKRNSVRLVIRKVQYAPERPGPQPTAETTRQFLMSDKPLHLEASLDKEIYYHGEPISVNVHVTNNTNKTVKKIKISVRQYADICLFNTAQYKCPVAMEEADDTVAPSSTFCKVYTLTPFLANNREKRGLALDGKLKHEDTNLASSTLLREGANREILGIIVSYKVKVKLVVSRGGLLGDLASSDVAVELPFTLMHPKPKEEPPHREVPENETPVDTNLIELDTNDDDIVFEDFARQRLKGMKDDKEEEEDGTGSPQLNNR
# β2-adaptin [2] = molecular target: T2, β2-adaptin; assay: cell-based; parameters: species or system HEK293T; details: β-arrestin1/β2-adaptin interaction, V2R stimulated; read-out: IC50 AP2/βarr1 (V2R)
# Experimental: To assess the potency of these compounds, concentration-response curves of the inhibitory actions of the compounds on the V2R-stimulated β-arrestin/β2-adaptin interaction were carried out. In addition to compounds #33 and #42, compound #1 was included in the analysis as a negative control (Fig. 2a–c). […] First, the reversible mode of action of Barbadin was assessed by incubating cells with Barbadin for 30 min and monitoring BRET between β2-adaptin and β-arrestin1 following, or not, extensive wash before AVP stimulation. […] HEK293T cells stably expressing β2-adaptin-YFP (ref. [24]) were cultured as aforementioned with the addition of G418 in the supplemented DMEM. Forty-eight hours before the experiments, 10 μg of total DNA (adjusted with salmon sperm DNA) was used to transfect 6 × 10^6 cells per ml in 10-cm dishes using 25-kDa linear PEI as a transfecting agent (3:1 PEI/DNA ratio). […] On the day of the BRET experiment, cells were washed, detached and resuspended in Tyrode's buffer. Cells (10^5 cells per well) were distributed in 96-wells microplates. DMSO or compounds selected from the virtual screening were preincubated for 30 min at indicated concentrations, always keeping DMSO at 1% final concentration in each well. Cells were treated with AVP or ISO at the indicated times and concentrations, at room temperature. Coelenterazine H (for YFP BRET acceptor) or coelenterazine 400 A (for GFP10 BRET acceptor) was added at a final concentration of 2.5 μM five minutes before measurements. Readings were collected with a Mithras LB 940 multidetector plate reader (Berthold Technologies) to integrate signals detected in the 485/20 nm and 530/25 nm windows for the Renilla luciferase (RlucII) and YFP light emissions, respectively, and in the 400/70 nm and 515/25 nm windows for the RlucII and GFP10 light emissions, respectively. The BRET signal was determined by calculating the ratio of the light intensity emitted by the YFP or GFP10 over the light intensity emitted by the RlucII. Net BR
# β2-adaptin [3] = assay: cells; parameters: species or system HEK293T; ebBRET receptor-RlucII with rGFP-CAAX, inhibition of agonist-induced receptor loss from plasma membrane; details: Homo sapiens, HEK-293T, 0.5 h; β2AR endocytosis, ISO 10 uM 30 min; read-out: IC50 membrane localization β2AR
# Description: Because the interaction between β-arrestins and β2-adaptin is important for initiating receptor internalization, we next sought to determine whether Barbadin could be used as a pharmacological tool, to block the ligand-promoted endocytosis of GPCRs. For this purpose, we used enhanced bystander BRET (ebBRET) trafficking sensors allowing to monitor both receptor disappearance from the plasma membrane (rGFP-CAAX sensor, Fig. 4a) and their accumulation in early endosomes (rGFP-FYVE, Fig. 4e) in spectrometric and microscopy-based assays. […] The effect of Barbadin on endocytosis was further confirmed using BRET-microscopy allowing to image receptor localization at the plasma membrane (Fig. 4i and Supplementary Fig. 5i), and in early endosomes (Supplementary Fig. 5j), coherent with the spectrometric measurements (Fig. 4b–d,f–h). Figure 4 Barbadin inhibits GPCRs endocytosis. […] (b–d,f–h) V2R, β2AR or AT1R interaction with either rGFP-CAAX (b–d, respectively) or rGFP-FYVE (f–h, respectively) was assessed by BRET following HEK293T cells pre-incubation with DMSO or Barbadin (100 μM) for 30 min before AVP (100 nM), ISO (10 μM) or AngII (1 μM) stimulation for the indicated times. […] To generate BRET images, the ratio of acceptor photon counts to donor photon counts was calculated for each pixel and expressed as a colour-coded heat map (lowest being black and purple, and highest red and white). […]
# β2-adaptin [4] = assay: cells; parameters: species or system HEK293T; ebBRET receptor-RlucII with rGFP-FYVE, inhibition of agonist-induced receptor accumulation in early endosomes; details: Homo sapiens, HEK-293T, 0.5 h
# Description: Because the interaction between β-arrestins and β2-adaptin is important for initiating receptor internalization, we next sought to determine whether Barbadin could be used as a pharmacological tool, to block the ligand-promoted endocytosis of GPCRs. For this purpose, we used enhanced bystander BRET (ebBRET) trafficking sensors allowing to monitor both receptor disappearance from the plasma membrane (rGFP-CAAX sensor, Fig. 4a) and their accumulation in early endosomes (rGFP-FYVE, Fig. 4e) in spectrometric and microscopy-based assays. […] The effect of Barbadin on endocytosis was further confirmed using BRET-microscopy allowing to image receptor localization at the plasma membrane (Fig. 4i and Supplementary Fig. 5i), and in early endosomes (Supplementary Fig. 5j), coherent with the spectrometric measurements (Fig. 4b–d,f–h).  Figure 4 Barbadin inhibits GPCRs endocytosis. (a,e) Schematic representation of the ebBRET-based assay used to follow agonist-induced receptor loss from the cell surface by monitoring the interaction between receptor-RLucII and rGFP-CAAX (a) or its translocation into endosomes using rGFP-FYVE (e). (b–d,f–h) V2R, β2AR or AT1R interaction with either rGFP-CAAX (b–d, respectively) or rGFP-FYVE (f–h, respectively) was assessed by BRET following HEK293T cells pre-incubation with DMSO or Barbadin (100 μM) for 30 min before AVP (100 nM), ISO (10 μM) or AngII (1 μM) stimulation for the indicated times. Data are the mean±s.e.m. of a least three independent experiments. (i) V2R localization was imaged by BRET. HEK293T cells were transfected with V2R-RlucII and rGFP-CAAX, pretreated with DMSO or Barbadin (100 μM) for 30 min and then stimulated with 100 nM AVP for 30 min. To generate BRET images, the ratio of acceptor photon counts to donor photon counts was calculated for each pixel and expressed as a colour-coded heat map (lowest being black and purple, and highest red and white). Scale bar, 10 μm.
# [5] = molecular target: T1, β2-adaptin(700–937)-StrepTagII; assay: differential scanning fluorimetry (thermal shift); 0.78 μM purified β2-adaptin (700–937) in PBS with 0.5 mM Triton X-100, 30 min with 20 μM β-arrestin1 C-terminal peptide; CPM dye; 30 °C to 90 °C at 6 °C per min; details: both partners purified
molecule,measurement,setting,value
"Nn1cnc2scc(-c3ccc(Cc4ccccc4)cc3)c2c1=O [#42, 3-amino-5-(4-benzylphenyl)-3H,4H-thieno[2,3-d]pyrimidin-4-one]",IC50,β2-adaptin [1],19.1 µM
same,IC50,β2-adaptin [2],14.6 ± 5 µM
same,IC50,β2-adaptin [3],18.2 ± 7.7 µM
same,IC50,"β2-adaptin [4]; AT1R endocytosis, AngII 1 uM 30 min, read-out: IC50 endosome localization AT1R",40.6 ± 24.4 µM
same,IC50,"β2-adaptin [4]; V2R endocytosis, AVP 100 nM 30 min, read-out: IC50 endosome localization V2R",31.5 ± 14.4 µM
same,IC50,"β2-adaptin [4]; β2AR endocytosis, ISO 10 uM 30 min, read-out: IC50 endosome localization β2AR",18.4 ± 9.8 µM
Nn1cnc2scc(-c3ccc(-c4ccccc4)cc3)c2c1=O [Analogue-C],IC50,β2-adaptin [2],54.3 ± 45 µM
Cc1nc2scc(-c3ccc(C(C)(C)C)cc3)c2c(=O)n1N [Cpd #43],IC50,β2-adaptin [2],15.4 ± 6.4 µM
"DDDIVFEDFARQRLKGMKDD (C-terminal stretch of β-arrestin1; holds Phe-388, Phe-391 and Arg-395; also called β-arrestin1 C-tail peptide; 20-mer β-arrestin C-tail peptide; source: synthetic peptide (Genscript)) [β-arrestin1 C-terminal peptide]",binding result,[5],binds
